Measurements taken from PubChem BioAssay (NCI).
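Test compounds were applied to cells in 96-well plates for 48 hours at 5 doses. At the GI50, growth is halved. Definition used: TGI = concentration required for complete inhibition of growth.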

Assays:
Experiment in all cases: NCI-60 cell line screen, 48 h
NCI-H460 lung = tested on: NCI-H460 lung
UACC-62 melanoma = tested on: UACC-62 melanoma
NCI-H23 lung = tested on: NCI-H23 lung
HCT-15 colon = tested on: HCT-15 colon
COLO 205 colon = tested on: COLO 205 colon
CCRF-CEM leukemia = tested on: CCRF-CEM leukemia
OVCAR-5 ovarian = tested on: OVCAR-5 ovarian
HCC-2998 colon = tested on: HCC-2998 colon
A498 renal = tested on: A498 renal

Structure (SMILES)	GI50 (NCI-H460 lung) [µM]	TGI (NCI-H460 lung) [µM]	GI50 (UACC-62 melanoma) [µM]	TGI (UACC-62 melanoma) [µM]	GI50 (NCI-H23 lung) [µM]	TGI (NCI-H23 lung) [µM]	GI50 (HCT-15 colon) [µM]	TGI (HCT-15 colon) [µM]	GI50 (COLO 205 colon) [µM]	TGI (COLO 205 colon) [µM]	GI50 (CCRF-CEM leukemia) [µM]	TGI (CCRF-CEM leukemia) [µM]	GI50 (OVCAR-5 ovarian) [µM]	TGI (OVCAR-5 ovarian) [µM]	GI50 (HCC-2998 colon) [µM]	TGI (HCC-2998 colon) [µM]	GI50 (A498 renal) [µM]	TGI (A498 renal) [µM]
Oc1ccc(C(c2ccc(O)cc2)c2ccc(Cl)cn2)cc1	31.6	> 100	1.59	17.8	0.0959	0.983	0.337	56.1	0.0416	4.97	14.9	> 100	17.6	> 100	0.279	9.36	0.344	26.5
COc1ccc2c(c1)C(=O)c1c-2n(CCCN=[N+]=[N-])c(=O)c2cc(N(C)C)ccc12	> 100	> 100	> 100	> 100	> 100	> 100	> 100	> 100	> 100	> 100			> 100	> 100	> 100	> 100	> 100	> 100
COc1ccc(C2SCC(=O)N2NC(=O)C(O)c2ccccc2)cc1OC (configuration not stated)	> 100	> 100	> 100	> 100			> 100	> 100	> 100	> 100	> 100	> 100	> 100	> 100	> 100	> 100	> 100	> 100
O=C(c1ccccc1)C1CCCCN1C(=O)c1ccccc1 (configuration not stated)		> 100		> 100				> 100		> 100		> 100				> 100		> 100
O=[N+]([O-])c1ccc(S(=O)Cc2ccccc2)c([N+](=O)[O-])c1 (configuration not stated)	16.4	33.2	2.55	8.89	2.54	8.91	1.85	3.88	1.68	3.05	0.739	3	14.5	29.9	16.6	30.2	13	25.7
CCCCc1c2c(nc3c1CCc1cc4cc5c(nc4nc1-3)-c1nc3c(c(CCCC)c1CC5)CCCC3)CCCC2		> 100		52		> 100		> 100		> 100		> 100				> 100		
O=c1[nH]c(=O)n([C@@H]2C[C@H](CO)[C@H](O)C2)cc1/C=C/Br		> 100		> 100		> 100		> 100				> 100		> 100		> 100		> 100
CCOC(=O)C1=C(C(=O)c2ccc(C)cc2)C(c2cccc([N+](=O)[O-])c2)C(C(=O)c2ccc(C)cc2)=C(C(=O)OCC)N1		> 100		33.5		30.1		6.13		4.03		8.57		34.7				
CC(C)=CCC/C(C)=C/CC/C(C)=C/Cc1c(O)c2ccccc2oc1=O		> 100		> 100		> 100		> 100		> 100		> 100				> 100		
O=C(O)C1C2CCC(O2)C1C(=O)N1CCCCC1 (configuration not stated)		39.2		20.4		33.4		26.1		3.87				62.8		11.9		4.46
